Laboratory results reported in patent publication US7157453B2, “Urea substituted imidazoquinolines” (3M Innovation Properties Company, priority 1999, dated 2007).

Experiments:
[1] = test system: tumor necrosis factor (α); assay: Cytokine Induction in Human Cells: tumor necrosis factor (α) by ELISA; type: cell-based; conditions: PBMC; human PBMCs, incubated 18 to 24 hours, lowest concentration found to induce tumor necrosis factor
Description: (§1) An in vitro human blood cell system was used to assess cytokine induction by compounds of the invention. Activity is based on the measurement of interferon and tumor necrosis factor (α) (IFN and TNF, respectively) secreted into culture media as described by Testerman et. al. In “Cytokine Induction by the Immunomodulators Imiquimod and S-27609”, Journal of Leukocyte Biology, 58, 365–372 (September, 1995).
(§2) Whole blood is collected by venipuncture into EDTA vacutainer tubes from healthy human donors. Peripheral blood mononuclear cells (PBMCs) are separated from whole blood by density gradient centrifugation using Histopaque®-1077 (Sigma Chemicals, St. Louis, Mo.). The PBMCs are suspended at 3–4×10^6 cells/mL in RPMI 1640 medium containing 10% fetal bovine serum, 2 mM L-glutamine and 1% penicillin/streptomycin solution (RPMI complete). The PBMC suspension is added to 48 well flat bottom sterile tissue culture plates (Costar, Cambridge, Mass. or Becton Dickinson Labware, Lincoln Park, N.J.) containing an equal volume of RPMI complete media containing test compound.
(§3) The compounds are solubilized in dimethyl sulfoxide (DMSO). The DMSO concentration should not exceed a final concentration of 1% for addition to the culture wells.
(§4) The solution of test compound is added at 60 μM to the first well containing RPMI complete and serial (three fold or ten fold) dilutions are made. The PBMC suspension is then added to the wells in an equal volume, bringing the test compound concentrations to the desired range. The final concentration of PBMC suspension is 1.5–2×10^6 cells/mL. The plates are covered with sterile plastic lids, mixed gently and then incubated for 18 to 24 hours at 37° C. in a 5% carbon dioxide atmosphere.
(§5) Following incubation the plates are centrifuged for 5–10 minutes at 1000 rpm (˜200×g) at 4° C. The cell culture supernatant is removed with a sterile polypropylene pipet and transferred to sterile polypropylene tubes. Samples are maintained at −30 to −70° C. until analysis. The samples are analyzed for interferon (α) and tumor necrosis factor (α) by ELISA
Tumor necrosis factor (α) (TNF) concentration is determined using ELISA kits available from Genzyme, Cambridge, Mass.; R&D Systems, Minneapolis, Minn.; or Pharmingen, San Diego, Calif.
(§6) The table below lists the lowest concentration found to induce interferon and the lowest concentration found to induce tumor necrosis factor for each compound.

interferon (α) = assay: Cytokine Induction in Human Cells: interferon (α) by ELISA; type: cell-based; conditions: PBMC; human PBMCs, incubated 18 to 24 hours, lowest concentration found to induce interferon
Description: as §1, §2, §3, §4, §5
Interferon (α) concentration is determined by ELISA using a Human Multi-Species kit from PBL Biomedical Laboratories, New Brunswick, N.J.
as §6

Structure (SMILES)	minimal effective concentration [1] [µM]	minimal effective concentration (interferon (α)) [µM]
Nc1nc2ccccc2c2c1ncn2CCCCNC(=O)Nc1ccccc1[N+](=O)[O-] [Example 41]	10	1.11
Nc1nc2ccccc2c2c1ncn2CCCCNC(=O)Nc1ccc(Br)cc1 [Example 42]	> 30	> 30
COC(=O)c1ccccc1NC(=O)NCCCCn1cnc2c(N)nc3ccccc3c21 [Example 43]	> 30	> 30
CCOc1ccccc1NC(=O)NCCCCn1cnc2c(N)nc3ccccc3c21 [Example 44]	10	1.11
Nc1nc2ccccc2c2c1ncn2CCCCNC(=O)Nc1ccccc1-c1ccccc1 [Example 45]	> 30	3.33
Nc1nc2ccccc2c2c1ncn2CCCCNC(=O)Nc1ccccc1C(F)(F)F [Example 46]	3.33	1.11
CSc1ccc(NC(=O)NCCCCn2cnc3c(N)nc4ccccc4c32)cc1 [Example 47]	10	3.33
Cc1ccccc1NC(=O)NCCCCn1cnc2c(N)nc3ccccc3c21 [Example 48]	3.33	0.37
CSc1cccc(NC(=O)NCCCCn2cnc3c(N)nc4ccccc4c32)c1 [Example 49]	3.33	3.33
CCCCOC(=O)c1ccc(NC(=O)NCCCCn2cnc3c(N)nc4ccccc4c32)cc1 [Example 50]	> 30	> 30
CC(=O)c1ccc(NC(=O)NCCCCn2cnc3c(N)nc4ccccc4c32)cc1 [Example 51]	30	30
CCCCNC(=O)NCCCCn1cnc2c(N)nc3ccccc3c21 [Example 52]	10	1.11
CCCCc1nc2c(N)nc3ccccc3c2n1CCNC(=O)NC12CC3CC(CC(C3)C1)C2 [Example 53]	10	> 10
CCCCc1nc2c(N)nc3ccccc3c2n1CCNC(=O)Nc1ccc(Oc2ccccc2)cc1 [Example 54]	10	> 10
CCCCc1nc2c(N)nc3ccccc3c2n1CCNC(=O)NCc1ccccc1 [Example 55]	1	1
CCCCc1nc2c(N)nc3ccccc3c2n1CCNC(=O)NCCC [Example 56]	1	1
CCCNC(=O)NCCn1c(COCC)nc2c(N)nc3ccccc3c21 [Example 67]	10	1
CCCCc1nc2c(N)nc3ccccc3c2n1CCCCNC(=O)NCCC [Example 71]	1	0.001
CCCCc1nc2c(N)nc3ccccc3c2n1CCCCNC(=O)N[C@H](C)c1ccccc1 [Example 81]	1	0.01
CCCCc1nc2c(N)nc3ccccc3c2n1CCCCNC(=O)N[C@@H](C)c1ccccc1 [Example 82]	0.1	0.01
CCCCc1nc2c(N)nc3ccccc3c2n1CCCCNC(=O)NCc1cccc(C)c1 [Example 83]	1	0.1
CCCCc1nc2c(N)nc3ccccc3c2n1CCCCNC(=O)NCc1ccc(C)cc1 [Example 84]	1	0.1
CCCCc1nc2c(N)nc3ccccc3c2n1CCCCNC(=O)Nc1ccccc1OC [Example 85]	0.1	0.001
CCCCc1nc2c(N)nc3ccccc3c2n1CCCCNC(=O)Nc1ccccc1Cl [Example 86]	1	0.1
CCCCCCCCNC(=O)NCCCCn1c(CCCC)nc2c(N)nc3ccccc3c21 [Example 87]	> 10	1
CCCCc1nc2c(N)nc3ccccc3c2n1CCCCNC(=O)N[C@@H]1C[C@H]1c1ccccc1 [Example 88]	1	0.1

Structure (SMILES)	minimal effective concentration [1] [µM]	minimal effective concentration (interferon (α)) [µM]
CCCCc1nc2c(N)nc3ccccc3c2n1CCCCNC(=O)NCc1ccc(OC)cc1 [Example 89]	10	0.1
COCCc1nc2c(N)nc3ccccc3c2n1CCCCNC(=O)NC12CC3CC(CC(C3)C1)C2 [Example 100]	10	0.001
CCNC(=O)NCCCCn1c(CCOC)nc2c(N)nc3ccccc3c21 [Example 101]	1	0.01
CCCNC(=O)NCCCCn1c(CCOC)nc2c(N)nc3ccccc3c21 [Example 102]	1	0.001
CCCCNC(=O)NCCCCn1c(CCOC)nc2c(N)nc3ccccc3c21 [Example 103]	0.1	0.0001
COCCc1nc2c(N)nc3ccccc3c2n1CCCCNC(=O)Nc1ccccc1 [Example 104]	1	0.0001
COCCc1nc2c(N)nc3ccccc3c2n1CCCCNC(=O)NC1CCCCC1 [Example 105]	1	0.001
COCCc1nc2c(N)nc3ccccc3c2n1CCCCNC(=O)Nc1cccc(C)c1 [Example 106]	1	0.0001
COCCc1nc2c(N)nc3ccccc3c2n1CCCCNC(=O)Nc1cccc(F)c1 [Example 107]	1	0.0001
COCCc1nc2c(N)nc3ccccc3c2n1CCCCNC(=O)Nc1cccc(C#N)c1 [Example 108]	0.0001	0.0001
COCCc1nc2c(N)nc3ccccc3c2n1CCCCNC(=O)Nc1ccc(C#N)cc1 [Example 109]	0.1	0.0001
COCCc1nc2c(N)nc3ccccc3c2n1CCCCNC(=O)N[C@H](C)c1ccccc1 [Example 110]	1	0.001
COCCc1nc2c(N)nc3ccccc3c2n1CCCCNC(=O)N[C@@H](C)c1ccccc1 [Example 111]	1	0.001
COCCc1nc2c(N)nc3ccccc3c2n1CCCCNC(=O)Nc1ccccc1Cl [Example 112]	0.1	0.0001
COCCc1nc2c(N)nc3ccccc3c2n1CCCCNC(=O)Nc1ccc(Cl)cc1 [Example 113]	1	0.0001
COCCc1nc2c(N)nc3ccccc3c2n1CCCCNC(=O)Nc1cccc([N+](=O)[O-])c1 [Example 114]	0.01	0.0001
COCCc1nc2c(N)nc3ccccc3c2n1CCCCNC(=O)Nc1ccc([N+](=O)[O-])cc1 [Example 115]	1	0.0001
COCCc1nc2c(N)nc3ccccc3c2n1CCCCNC(=O)Nc1cccc(C(F)(F)F)c1 [Example 116]	1	0.0001
COCCc1nc2c(N)nc3ccccc3c2n1CCCCNC(=O)Nc1ccc(C(F)(F)F)cc1 [Example 117]	10	10
COCCc1nc2c(N)nc3ccccc3c2n1CCCCNC(=O)Nc1c(Cl)cccc1Cl [Example 118]	10	10
COCCc1nc2c(N)nc3ccccc3c2n1CCCCNC(=O)Nc1ccccc1Br [Example 119]	10	10
COCCc1nc2c(N)nc3ccccc3c2n1CCCCNC(=O)N(C)c1ccccc1 [Example 120]	0.01	0.0001
COCCc1nc2c(N)nc3ccccc3c2n1CCCCNC(=O)N1CCOCC1 [Example 121]	10	0.01
COCCc1nc2c(N)nc3ccccc3c2n1CCCCNC(=O)N1CCCC1 [Example 122]	1	0.001
COCCc1nc2c(N)nc3ccccc3c2n1CCCCNC(=S)Nc1cccnc1 [Example 125]	10	0.0001
